Results on 22 molecules are retold here after paper PMC6017735, “Novel Semisynthetic Derivatives of Bile Acids as Effective Tyrosyl-DNA Phosphodiesterase 1 Inhibitors” (Molecules : A Journal of Synthetic Chemistry and Natural …, 2018).

A word on the IC50: it is the point on the concentration scale where inhibition reaches its midpoint.

Values joined by “and” are separate entries in the source; they are usually repeats but may differ in a detail not shown here. Equal entries are not always repeated.

In one assay the target is T1, Tdp1 (Homo sapiens, UniProt Q9NUW8).
T1 construct: inferred from the pET 16B vector and the Ni-chelating resin) (N); made in house
T1 sequence (Q9NUW8 whole entry): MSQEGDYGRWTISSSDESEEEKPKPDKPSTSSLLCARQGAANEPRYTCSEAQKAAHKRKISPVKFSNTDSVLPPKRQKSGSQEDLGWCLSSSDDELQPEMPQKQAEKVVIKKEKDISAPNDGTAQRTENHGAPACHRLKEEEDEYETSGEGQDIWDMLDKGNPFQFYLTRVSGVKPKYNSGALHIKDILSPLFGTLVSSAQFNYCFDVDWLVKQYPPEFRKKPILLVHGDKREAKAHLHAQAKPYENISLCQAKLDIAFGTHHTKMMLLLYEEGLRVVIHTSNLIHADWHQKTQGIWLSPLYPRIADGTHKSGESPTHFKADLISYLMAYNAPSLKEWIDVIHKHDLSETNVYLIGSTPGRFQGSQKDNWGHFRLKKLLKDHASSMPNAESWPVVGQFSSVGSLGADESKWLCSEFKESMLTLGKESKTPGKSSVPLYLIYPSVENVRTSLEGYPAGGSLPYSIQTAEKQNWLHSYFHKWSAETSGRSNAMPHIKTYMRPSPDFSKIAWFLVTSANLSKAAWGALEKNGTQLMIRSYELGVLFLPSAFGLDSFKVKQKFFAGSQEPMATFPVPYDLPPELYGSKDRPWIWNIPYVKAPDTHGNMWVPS
As to the kind of experiment: Real-time detection of Tdp1 activity with FAM-BHQ1 oligonucleotide biosensor. The class given is biochemical. To be noted: IC50 (concentration that inhibits the activity of the enzyme by 50%), samples synthesized by the authors; 50 nM biosensor, 1.3 nM Tdp1, 26 °C. The text has this:
For testing, we used recently designed oligonucleotide biosensors for the real-time detection of Tdp1 activity based on the ability of Tdp1 to remove fluorophore quenchers from the 3′-end of DNA [27]. The hexadecameric oligonucleotide carried 5(6)-carboxyfluorescein (FAM) at the 5′-end and fluorophore quencher BHQ1 (Black Hole Quencher-1) at the 3′-end. Tdp1 inhibitors prevent the removal of fluorophore quenchers, thus reducing fluorescence intensity.
The recombinant Tdp1 was purified to homogeneity by chromatography on Ni-chelating resin and phosphocellulose P11 as described using the plasmid pET 16B-Tdp1 kindly provided by Dr. K.W. Caldecott (University of Sussex, United Kingdom).
Real-Time Detection of Tdp1 Activity. The Tdp1 activity measurements were carried out as described. Briefly, Tdp1-biosensor with a final concentration of 50 nM was incubated in a volume of 200 μL containing a Tdp1 buffer (50 mM Tris-HCl pH8.0, 50 mM NaCl, 7 mM β-mercaptoethanol) supplemented with purified 1.3 nM Tdp1 and various concentrations of the inhibitor in a 1.5% DMSO solution. Fluorescence measurements (Ex485/Em520 nm) were carried out during the linear phase of reaction (from 0 to 8 min) every 55 s. The reactions were incubated at a constant temperature of 26 °C in a POLARstar OPTIMA fluorimeter, BMG LABTECH, GmbH. The influence of compounds was evaluated by comparing the fluorescence increase rate in the presence of compounds to that of the DMSO control wells.
In turn, `CC(=O)OC1CCC2(C)C(C1)CC(OC(C)=O)C1C2CCC2(C)C(C(C)CCC(=O)NCCc3c[nH]c4ccccc34)CCC12` (centres unmarked) [Compound 1a] had an IC50 of 0.32 ± 0.11 µM.
In turn, `CC(CCC(=O)NCCc1c[nH]c2ccccc12)C1CCC2C3C(O)CC4CC(O)CCC4(C)C3CCC12C` (centres unmarked) [Compound 1b] displayed an IC50 of 2.65 ± 0.3 µM.
The molecule `CC(=O)OC1CCC2(C)C(C1)CC(OC(C)=O)C1C2CCC2(C)C(C(C)CCC(=O)NCCc3c[nH]c4ccccc34)CCC12` (centres unmarked) [Compound 2a] showed a half-maximal inhibitory concentration (IC50) of 0.38 ± 0.12 µM.
The same measure, in the same setting: the result for `CC(CCC(=O)NCCc1c[nH]c2ccccc12)C1CCC2C3C(O)CC4CC(O)CCC4(C)C3CCC12C` (centres unmarked) [Compound 2b] reads ~2.6 µM and 2.6 µM; that for `CC(=O)OC1CCC2(C)C(CCC3C2CC(OC(C)=O)C2(C)C(C(C)CCC(=O)NCCc4c[nH]c5ccccc45)CCC32)C1` (centres unmarked) [Compound 3a], 0.65 ± 0.16 µM; that for `CC(CCC(=O)NCCc1c[nH]c2ccccc12)C1CCC2C3CCC4CC(O)CCC4(C)C3CC(O)C12C` (centres unmarked) [Compound 3b], 2.7 ± 0.2 µM.
Turning to `CC(=O)OC1CC2C(CCC3CC(O)CCC32C)C2CCC(C(C)CCC(=O)NCCc3c[nH]c4ccccc34)C12C` (centres unmarked) [Compound 3c], the 50% inhibitory concentration (IC50) was 0.95 ± 0.05 µM.
Molecule `CC(=O)OC1CCC2(C)C(CCC3C2CC(O)C2(C)C(C(C)CCC(=O)NCCc4c[nH]c5ccccc45)CCC32)C1` (centres unmarked) [Compound 3d] gave a half-inhibitory concentration (IC50) of 0.48 ± 0.04 µM.
Molecule `CC(=O)O[C@@H]1CC[C@@]2(C)[C@H](CC[C@@H]3[C@@H]2C[C@H](OC(C)=O)[C@]2(C)[C@@H]([C@H](C)CCC(=O)Nc4ccccc4)CC[C@@H]32)C1` [Compound 4a, N-Phenyl-3α,12α-diacetoxy-5β-cholan-24-amide] showed an IC50 of 0.43 ± 0.13 µM.
Take `C[C@H](CCC(=O)Nc1ccccc1)[C@H]1CC[C@H]2[C@@H]3CC[C@@H]4C[C@H](O)CC[C@]4(C)[C@H]3C[C@H](O)[C@]12C` [Compound 4b, N-Phenyl-3α,12α-dihydroxy-5β-cholan-24-amide]: it took 6.7 ± 0.7 µM to reach half-maximal inhibition (IC50).
In turn, `CC(=O)O[C@@H]1CC[C@@]2(C)[C@H](CC[C@@H]3[C@@H]2C[C@H](OC(C)=O)[C@]2(C)[C@@H]([C@H](C)CCC(=O)Nc4ccc(Br)cc4)CC[C@@H]32)C1` [Compound 5a, N-(4′-Bromophenyl)-3α,12α-diacetoxy-5β-cholan-24-amide] yielded an IC50 of 0.42 ± 0.01 µM.
Molecule `C[C@H](CCC(=O)Nc1ccc(Br)cc1)[C@H]1CC[C@H]2[C@@H]3CC[C@@H]4C[C@H](O)CC[C@]4(C)[C@H]3C[C@H](O)[C@]12C` [Compound 5b, N-(4′-Bromophenyl)-3α,12α-dihydroxy-5β-cholan-24-amide] gave an IC50 of 1.3 ± 0.2 µM.
Still for that read-out and setting: the value for `CC(=O)O[C@@H]1CC[C@@]2(C)[C@H](CC[C@@H]3[C@@H]2C[C@H](OC(C)=O)[C@]2(C)[C@@H]([C@H](C)CCC(=O)Nc4ccc(C)cc4)CC[C@@H]32)C1` [Compound 6a, N-(p-Tolyl)-3α,12α-diacetoxy-5β-cholan-24-amide] was 1 ± 0.05 µM.
The molecule `Cc1ccc(NC(=O)CC[C@@H](C)[C@H]2CC[C@H]3[C@@H]4CC[C@@H]5C[C@H](O)CC[C@]5(C)[C@H]4C[C@H](O)[C@]23C)cc1` [Compound 6b, N-(p-Tolyl)-3α,12α-dihydroxy-5β-cholan-24-amide] registered an IC50 of 7.6 ± 3.9 µM.
Turning to `CC(=O)O[C@@H]1CC[C@@]2(C)[C@H](CC[C@@H]3[C@@H]2C[C@H](OC(C)=O)[C@]2(C)[C@@H]([C@H](C)CCC(=O)Nc4cccnc4)CC[C@@H]32)C1` [Compound 7a, N-(Pyridin-3-yl)-3α,12α-diacetoxy-5β-cholan-24-amide], the concentration for half-maximal inhibition (IC50) stood at 4.08 ± 0.08 µM.
`C[C@H](CCC(=O)Nc1cccnc1)[C@H]1CC[C@H]2[C@@H]3CC[C@@H]4C[C@H](O)CC[C@]4(C)[C@H]3C[C@H](O)[C@]12C` [Compound 7b, N-(Pyridin-3-yl)-3α,12α-dihydroxy-5β-cholan-24-amide]: the IC50 is > 15 µM.
As to `CC(=O)O[C@@H]1CC[C@]2(C)C3C[C@H](OC(C)=O)[C@@]4(C)C(CC[C@@H]4[C@H](C)CCC(=O)NC45CC6CC(CC(C6)C4)C5)[C@@H]3CC[C@@H]2C1` (stereo partly drawn) [Compound 8a, N-(1′-Adamantyl)-3α,12α-diacetoxy-5β-cholan-24-amide], the IC50 was found to be 0.47 ± 0.08 µM.
Regarding `C[C@H](CCC(=O)NC12CC3CC(CC(C3)C1)C2)[C@H]1CCC2[C@@H]3CC[C@@H]4C[C@H](O)CC[C@]4(C)C3C[C@H](O)[C@@]21C` (stereo partly drawn) [Compound 8b, N-(1′-Adamantyl)-3α,12α-dihidroxy-5β-cholan-24-amide], the half-maximal inhibitory concentration (IC50) came to 2.3 ± 0.4 µM.
On the same count and under the same terms, the result for `CC(=O)OC1CCC2(C)C(CCC3C2CC(OC(C)=O)C2(C)C(C(C)CCC(=O)NCCc4cc(C(C)(C)C)c(O)c(C(C)(C)C)c4)CCC32)C1` (stereo not drawn) [Compound 9a, N-(2′′-(3′,5′-Di-tret-buthyl-4′-hydroxyphenyl)-ethyl)-3α,12α-diacetoxy-5β-cholan-24-amide] reads 0.29 ± 0.12 µM; that for `CCN(CC)CCCNC(=O)CC[C@@H](C)[C@H]1CCC2[C@@H]3CC[C@@H]4C[C@H](OC(C)=O)CC[C@]4(C)C3C[C@H](OC(C)=O)[C@@]21C` (stereo partly drawn) [Compound 10a, N-(3′,3′-Diethylaminopropyl)-3α,12α-diacetoxy-5β-cholan-24-amide], > 15 µM.
Take `CC(=O)O[C@@H]1CC[C@@]2(C)[C@H](CC[C@@H]3[C@@H]2C[C@H](OC(C)=O)[C@]2(C)[C@@H]([C@H](C)CCC(=O)NCCCN4CCOCC4)CC[C@@H]32)C1` [Compound 11a, N-(3′-Morpholinopropyl)-3α,12α-diacetoxy-5β-cholan-24-amide]: the concentration for half-maximal inhibition (IC50) is > 15 µM.

The assay is the same for the next values; noted with them: commercial sample of compound 1b (virtual screening hit); read-out: IC50.
With `CC(CCC(=O)NCCc1c[nH]c2ccccc12)C1CCC2C3C(O)CC4CC(O)CCC4(C)C3CCC12C` (centres unmarked) [Compound 1b], the IC50 is 0.3 µM.

Another assay addresses T1, Tdp1.
Test: not given
To be noted: single- and double-stranded substrates of DNA; cited from earlier work.
For the molecule `N=C(N)c1ccc(-c2ccc(-c3ccc(C(=N)N)cc3)o2)cc1` [Fur, furamidine], the Tdp1 inhibition entry was “low micromolar concentrations”.
